# Molecular target: T1, Angiotensin II Receptor (Bos taurus, UniProt P25104)
# T1 construct: The brownish tissue forming the adrenal cortex is scraped off and finely minced with scissors before homogenization; tissue local slaughter house (Maxwell--Cohen); host or cells: beef adrenal cortex, microsomal membranes (100,000×g pellet)
# T1 sequence (P25104 1-359): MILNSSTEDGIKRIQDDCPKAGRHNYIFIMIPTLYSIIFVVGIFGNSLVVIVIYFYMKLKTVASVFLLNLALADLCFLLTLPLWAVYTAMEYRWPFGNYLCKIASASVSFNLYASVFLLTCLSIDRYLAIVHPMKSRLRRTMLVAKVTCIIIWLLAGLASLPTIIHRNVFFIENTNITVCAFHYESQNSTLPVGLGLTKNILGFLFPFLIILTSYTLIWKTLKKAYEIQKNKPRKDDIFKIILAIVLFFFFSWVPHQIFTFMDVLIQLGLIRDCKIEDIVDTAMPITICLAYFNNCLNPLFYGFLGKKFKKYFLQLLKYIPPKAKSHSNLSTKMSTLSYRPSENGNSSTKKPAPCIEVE
# Experiment: Receptor Binding Assay: binding of [125I](Sar1,Ile8)AngII to beef adrenal cortex membranes
# Details: radioligand, beef adrenal membranes; non-specific with 1.0 uM unlabeled (Sar1,Ile8)AngII
# Text: [^125 I](Sar^1,Ile^8)AngII, S.A. 2200 Ci/mmole, is purchased from Dupont (NEN®, Boston, Mass.). All unlabeled AngII analogs, Dimethylsulfoxide (DMSO), nucleotides, bovine serum albumin (BSA) are purchased from Sigma Chemical Co., St. Louis, Mo. U.S.A.
# Approximately sixteen (16) to twenty (20) beef adrenal glands are processed as follows: fresh adrenal glands received on crushed ice are cleaned of fatty tissues and the tough membranes encapsulating the glands are removed and discarded. The brownish tissue forming the adrenal cortex is scraped off and finely minced with scissors before homogenization. Care is taken to avoid contamination with medullary tissue during dissection. The scraped cortices are suspended in twenty volumes of an ice-cold buffer medium consisting of 10 mM Tris.HCl (pH 7.4 at 22° C.) and containing 1.0 mM EDTA and 0.2M sucrose. Unless otherwise indicated, all subsequent operations are done at 4° C. […] The homogenate is centrifuged first at low speed (3,000×g) for 10 min. […] This P2 pellet is discarded and the liquid phase is carefully decanted off in clean centrifuge tubes and recentrifuged at high speed (100,000×g) for 60 min. The translucent final pellet is harvested and combined in a small volume (20-50.0 ml) of 50.0 mM Tris.HCl buffer, pH 7.2. […] The pelleted membrane is reconstituted in 50.0 mM Tris.HCl buffer containing 0.1 mM of phenylmethylsulfonyl fluoride (PMSF) to give approximately a protein concentration of 2.5 mg per ml of tissue suspension. The membrane preparation is finally aliquoted in 1.0 ml volumes and stored at -70° C. until use in the binding assays.
# In competition studies, experimental compounds are diluted in dimethylsulfoxide (DMSO) and added in 20 ul to wells before the introduction of tissue membranes. […] Assays are performed in triplicate. The wells are left undisturbed for 60 min. at room temperature. […] The filters are removed from the filter grid and counted in a Parkard® Cobra Gamma Counter for 1 min. […] The binding data are analyzed by the non-linear interactive "LUNDON-1" program (LUNDON SOFTWARE Inc., Cleveland, Ohio U.S.A.).
substance,measurement,value
"[^125 I](Sar^1,Ile^8) AngII [reference compound]",Specific binding,greater than 90%
